In patent publication US9394555B2, “Compositions comprising a polypeptide having cellulolytic enhancing activity and a dioxy compound and uses thereof” (priority 2010, dated 2016):

Columns and labels:
[1] = system: T. aurantiacus CEL5A endoglucanase II and P. brasilianum CEL3A beta-glucosidase; assay: Microcrystalline cellulose conversion assay I (Examples 8, 9) without GH61 polypeptide; assay type: biochemical, Thermoascus aurantiacus; Penicillium brasilianum; conditions: dioxy compound 0.3% w/w + endoglucanase II + beta-glucosidase (5 mg/g each), no GH61; 96 hours, at either 50° C. or 60° C.
Procedure: (§1) A 5% microcrystalline cellulose slurry was prepared by addition of 2.5 g of AVICEL®PH101 (Sigma-Aldrich, St. Louis, Mo., USA) to a graduated 50 ml screw-cap conical tube followed by 15 ml of 1 M sodium acetate pH 5 and 1 ml of 100 mM MnSO4 and approximately 20 ml of deionizer water. Each conical tube was then mixed thoroughly by shaking/vortexing, and adjusted to 50 ml total with deionized water and mixed again. Contents of the tube were then quickly transferred to a 100 ml beaker and stirred rapidly with a magnetic stirrer. Five hundred μl aliquots of the 5% AVICEL® slurry were pipetted into wells of a 2.0 ml 96-deepwell plate (Axygen, Union City, Calif., USA) using a 1000 μl micropipette with a wide aperture tip (end of tip cut off about 2 mm from the base). Three hundred μl of either deionized water or a 1% dioxy compound solution (dissolved in deionized water) was added to each well.
(§2) The dioxy compounds assayed include caffeic acid (Sigma-Aldrich, St. Louis, Mo., USA), dichlorophenolindophenol (DCPIP; Sigma-Aldrich, St. Louis, Mo., USA), ethyl gallate (Sigma-Aldrich, St. Louis, Mo., USA), gallic acid (Sigma-Aldrich, St. Louis, Mo., USA), 3,4-dihydroxybenzoic acid (Sigma-Aldrich, St. Louis, Mo., USA), pyrocatechol (Sigma-Aldrich, St. Louis, Mo., USA), pyrogallol (Sigma-Aldrich, St. Louis, Mo., USA), sinapinic acid (3,5 dimethoxy-4-hydroxy cinnamic acid; Apin Chemicals LTD, Abingdon, UK), and tannic acid (Sigma-Aldrich, St. Louis, Mo., USA).
(§3) Enzyme mixtures were prepared and then added simultaneously to all wells in a volume of 200 μl, for a total of 1 ml in each reaction. […] All experiments reported were performed in triplicate.
(§4) After approximately 4 days, the deep-well plate was removed from the incubator and chilled overnight to 4° C. The plate was then mixed well by inversion and briefly centrifuged at 52×g in a SORVALL® RT7 centrifuge (Thermo Fisher Scientific, Waltham, Mass., USA) for 10 seconds. Samples were then mixed by pipetting, and 200 μl from each well were transferred to a MULTISCREEN® HV centrifuge filter plate assembly (Millipore, Bedford, Mass., USA). The centrifuge filter plate assembly was centrifuged at 2000 rpm in a SORVALL® RT7 centrifuge for 20 minutes. […] Sugars were detected using a refractive index detector (Agilent Technologies, Inc., Santa Clara, Calif., USA) with quantification by integration compared to purified sugar standards.
(§5) In this assay only glucose was measured since beta-glucosidase was at high levels in all samples but the controls.
(§6) A limit digest was performed to determine the total concentration accessible glucose equivalents using 100 mg of T. reesei cellulase (CELLIC™ CTec, Novozymes A/S, Bagsvaerd, Denmark) per gram cellulose, Triplicate data points were averaged and standard deviation was calculated.

[2] = target: T. aurantiacus GH61A polypeptide (Thermoascus aurantiacus, UniProt G3XAP7, N13Y); assay: Microcrystalline cellulose conversion assay II (Examples 10, 11), T. reesei CEL7A cellobiohydrolase I + A. oryzae CEL3A beta-glucosidase; assay type: biochemical; conditions: 72 hours, 50° C.; for conversion (hydrolysis) of the microcrystalline cellulose: dioxy compound 0.1% w/w alone, no enzymes
T. aurantiacus GH61A polypeptide, sequence (G3XAP7 whole entry N13Y): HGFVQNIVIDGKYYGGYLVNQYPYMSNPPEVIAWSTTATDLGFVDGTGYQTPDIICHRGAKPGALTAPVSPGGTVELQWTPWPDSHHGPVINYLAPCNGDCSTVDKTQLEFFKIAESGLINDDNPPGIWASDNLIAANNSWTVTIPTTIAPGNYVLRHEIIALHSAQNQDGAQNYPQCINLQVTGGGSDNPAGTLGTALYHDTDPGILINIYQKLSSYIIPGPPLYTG
Procedure: A 5% microcrystalline cellulose slurry was prepared by addition of 2.5 g of AVICEL® PH101 to a graduated 50 ml screw-cap conical tube followed by approximately 40 ml of deionized water. Each conical tube was then mixed thoroughly by shaking/vortexing, and adjusted to 50 ml total with deionized water and mixed again. For samples containing dioxy compounds, a similar slurry was prepared by the addition of 100 mg of solid dioxy compound and 2.5 g of AVICEL® PH101 to a graduated 50 ml screw-cap conical tube followed by approximately 40 ml of deionized water. Each conical tube was then mixed thoroughly by shaking/vortexing, and adjusted to 50 ml total with deionized water and mixed again.
The dioxy compounds assayed include caffeic acid, dichlorophenolindophenol (DCPIP), ethyl gallate, gallic acid, 3,4-dihydroxybenzoic acid, pyrocatechol, pyrogallol, sinapinic acid (3,5 dimethoxy-4-hydroxy cinnamic acid), and tannic acid.
In all cases, the contents of the tube (5% microcrystalline cellulose slurry with or without 0.2% dioxy compound) were then quickly transferred to a 100 ml beaker and stirred rapidly with a magnetic stirrer. Five hundred μl aliquots of the 5% AVICEL® slurry were pipetted into wells of a 2.0 ml 96-deepwell plate (Axygen, Union City, Calif.) using a 1000 μl micropipette with a wide aperture tip (end of tip cut off about 2 mm from the base). One hundred μl of deionized water and 300 μl of 3.33 mM MnSO4-500 mM sodium acetate pH 5 were then added to each well. Enzyme mixtures were prepared and then added simultaneously to all wells in a volume of 100 μl, for a total of 1 ml in each reaction. […] All experiments reported were performed in triplicate.
as §4, with “Primary analysis of the hydrolysis reactions was performed using an AGILENT® 1100 HPLC with CHEMSTATION® software equipped with an AMINEX™ HPX-87H column. After” for “After”, “centrifuge” for “centrifuge (Thermo Fisher Scientific, Waltham, Mass., USA)”, “assembly.” for “assembly (Millipore, Bedford, Mass., USA).”, “detector” for “detector (Agilent Technologies, Inc., Santa Clara, Calif., USA)”
All HPLC data processing was performed using MICROSOFT EXCEL™ software. […] In this assay only glucose was measured since beta-glucosidase was at high levels in all samples but the controls. The degree of cellulose conversion was calculated using Equation 1. Triplicate data points were averaged and standard deviation was calculated.
The microcrystalline cellulose hydrolysis assay was performed as described in Example 10.
Data were collected and analyzed, as described in Example 10, after 72 hours of incubation at 50° C.

[3] = system: T. terrestris GH61E polypeptide; assay: Microcrystalline cellulose conversion assay I (Examples 8, 9) with T. terrestris GH61E polypeptide; assay type: biochemical, Thielavia terrestris; conditions: dioxy compound 0.3% w/w + T. terrestris GH61E polypeptide (10 mg/g) + endoglucanase II + beta-glucosidase (5 mg/g each), 96 hours
Procedure: as §1, §2, §3, §4, §5, §6

Structure (SMILES) | change in conversion of microcrystalline cellulose compared to the enzymes in the absence of the dioxy compound [1] | conversion (hydrolysis) of the microcrystalline cellulose [2] | conversion of microcrystalline cellulose ([3]; 50° C.) [%] | conversion of microcrystalline cellulose ([3]; 60° C.) [%] | conversion of the microcrystalline cellulose ([2]; dioxy compound 0.1% w/w + cellobiohydrolase I + beta-glucosidase (5 mg/g each), no GH61)
CCOC(=O)c1cc(O)c(O)c(O)c1 [ethyl gallate] | no significant change | no significant hydrolysis | 6.0±0.3 | 6.2±0.1 | 
Oc1ccccc1O [pyrocatechol] | no significant change | no significant hydrolysis | 7.4±0.2 | 7.9±0.1 | no significant change
Oc1cccc(O)c1O [pyrogallol] | no significant change | no significant hydrolysis | 7.1±0.5 | 9.5±0.1 | 
